Assay results taken from US20230357269A1 (LES LABORATOIRES SERVIER, priority 2020, published 2023).

These molecules were tested against human recombinant LRRK2 protein (Homo sapiens (Human), UniProt Q5S007) (assay: LRRK2 Kinase Activity Assay (ADP-Glo)). Details: LRRK2 wt; LRRKtide peptide and ATP substrates; 1h-incubation at 37° C.
Format: biochemical
In short: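 Recombinant human LRRK2 acted on LRRKtide peptide and ATP for 1 h at 37 °C. ADP formed was detected by ADP-Glo luminescence (ATP depletion, then ADP-to-ATP conversion and luciferase). IC50s came from curve fits over 10 concentrations (N=2).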

Chain of human recombinant LRRK2 protein (Q5S007 whole entry): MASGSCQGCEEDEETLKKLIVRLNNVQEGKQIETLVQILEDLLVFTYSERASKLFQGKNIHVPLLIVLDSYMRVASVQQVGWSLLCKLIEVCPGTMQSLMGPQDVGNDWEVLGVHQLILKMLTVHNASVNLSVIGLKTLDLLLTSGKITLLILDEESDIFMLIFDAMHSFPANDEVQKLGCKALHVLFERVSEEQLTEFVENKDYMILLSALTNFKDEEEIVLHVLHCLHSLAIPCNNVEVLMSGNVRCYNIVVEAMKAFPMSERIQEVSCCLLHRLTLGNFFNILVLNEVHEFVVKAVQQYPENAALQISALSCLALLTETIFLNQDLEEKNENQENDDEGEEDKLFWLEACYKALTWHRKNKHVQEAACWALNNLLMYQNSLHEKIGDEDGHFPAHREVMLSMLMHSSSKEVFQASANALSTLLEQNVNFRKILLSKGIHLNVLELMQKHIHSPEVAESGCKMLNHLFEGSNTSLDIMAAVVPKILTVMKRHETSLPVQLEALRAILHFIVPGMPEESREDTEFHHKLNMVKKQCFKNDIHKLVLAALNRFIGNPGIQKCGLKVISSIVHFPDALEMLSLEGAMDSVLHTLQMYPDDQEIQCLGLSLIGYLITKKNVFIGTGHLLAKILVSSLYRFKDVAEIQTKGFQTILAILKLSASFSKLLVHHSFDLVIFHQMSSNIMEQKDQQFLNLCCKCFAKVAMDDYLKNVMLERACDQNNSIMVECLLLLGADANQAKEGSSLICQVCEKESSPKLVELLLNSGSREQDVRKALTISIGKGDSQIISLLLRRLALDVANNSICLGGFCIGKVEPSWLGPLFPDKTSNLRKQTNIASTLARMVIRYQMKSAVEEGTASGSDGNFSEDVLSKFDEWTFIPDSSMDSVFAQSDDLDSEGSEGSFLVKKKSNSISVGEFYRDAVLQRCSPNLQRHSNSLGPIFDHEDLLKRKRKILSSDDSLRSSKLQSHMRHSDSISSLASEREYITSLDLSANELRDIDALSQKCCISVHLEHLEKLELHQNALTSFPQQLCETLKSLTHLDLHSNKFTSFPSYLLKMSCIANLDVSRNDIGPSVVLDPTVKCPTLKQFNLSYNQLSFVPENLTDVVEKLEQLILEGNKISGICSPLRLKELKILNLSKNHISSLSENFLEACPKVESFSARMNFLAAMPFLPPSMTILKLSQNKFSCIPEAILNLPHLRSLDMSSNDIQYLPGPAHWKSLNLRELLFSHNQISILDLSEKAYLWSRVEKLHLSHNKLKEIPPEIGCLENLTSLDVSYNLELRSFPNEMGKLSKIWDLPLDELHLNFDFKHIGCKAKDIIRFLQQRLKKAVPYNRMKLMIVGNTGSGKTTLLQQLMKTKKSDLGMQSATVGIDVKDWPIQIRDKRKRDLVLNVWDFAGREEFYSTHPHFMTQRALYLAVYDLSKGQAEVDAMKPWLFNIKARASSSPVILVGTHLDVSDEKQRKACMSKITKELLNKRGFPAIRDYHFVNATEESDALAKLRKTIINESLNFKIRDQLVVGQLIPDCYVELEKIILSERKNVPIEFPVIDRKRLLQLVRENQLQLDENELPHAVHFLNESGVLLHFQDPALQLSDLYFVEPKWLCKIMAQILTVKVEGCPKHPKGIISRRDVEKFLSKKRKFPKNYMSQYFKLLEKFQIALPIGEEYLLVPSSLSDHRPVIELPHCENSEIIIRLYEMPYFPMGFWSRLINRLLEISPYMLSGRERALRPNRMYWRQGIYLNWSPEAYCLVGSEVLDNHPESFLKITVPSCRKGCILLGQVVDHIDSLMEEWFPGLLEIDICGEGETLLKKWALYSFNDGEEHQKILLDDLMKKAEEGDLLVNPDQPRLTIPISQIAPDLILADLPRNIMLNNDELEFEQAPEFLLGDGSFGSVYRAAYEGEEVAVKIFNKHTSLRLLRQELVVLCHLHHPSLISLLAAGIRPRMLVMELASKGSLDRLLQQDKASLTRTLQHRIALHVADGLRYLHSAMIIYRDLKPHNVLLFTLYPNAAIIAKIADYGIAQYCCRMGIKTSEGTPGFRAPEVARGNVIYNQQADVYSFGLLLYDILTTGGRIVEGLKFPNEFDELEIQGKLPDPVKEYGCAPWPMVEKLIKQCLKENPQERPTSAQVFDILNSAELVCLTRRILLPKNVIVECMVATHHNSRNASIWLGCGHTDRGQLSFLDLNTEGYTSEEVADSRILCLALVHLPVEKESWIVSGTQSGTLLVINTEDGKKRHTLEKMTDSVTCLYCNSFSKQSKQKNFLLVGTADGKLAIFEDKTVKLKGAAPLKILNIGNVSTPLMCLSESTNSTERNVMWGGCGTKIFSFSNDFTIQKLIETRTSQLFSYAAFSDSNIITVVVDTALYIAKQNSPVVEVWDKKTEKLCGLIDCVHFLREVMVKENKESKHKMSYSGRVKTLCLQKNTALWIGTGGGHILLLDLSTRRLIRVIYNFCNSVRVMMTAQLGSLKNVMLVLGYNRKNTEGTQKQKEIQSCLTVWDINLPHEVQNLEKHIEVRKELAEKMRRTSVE

Row | Compound | IC50 [nM]
1 | O=C1NCCCOc2ccc3[nH]nc(c3c2)C2=CN=C(CCO1)S2 [Example 149, 8,14-dioxa-23-thia-4,10,19,20-tetraazatetracyclo[13.5.2.1^2,5.0^18,21]tricosa-1(20),2,4,15(22),16,18(21)-hexaen-9-one] | < 10
2 | C[C@@H]1CCNC(=O)O[C@@H](C)c2cccc(n2)-c2n[nH]c3ccc(cc23)O1 [Example 150, (7S,13R)-7,13-dimethyl-8,14-dioxa-10,19,20,23-tetraazatetracyclo[13.5.2. 1^2,6.0^18,21]tricosa-1(20),2(23),3,5,15(22),16,18(21)-heptaen-9-one] | 10 to 100
3 | C[C@@H]1CCNC(=O)OCCn2cc(cc2C#N)-c2n[nH]c3ccc(cc23)O1 [Example 151, (13R)-13-methyl-9-oxo-8,14-dioxa-5,10,19,20-tetraazatetracyclo[13.5.2. 1^2,5.0^18,21]tricosa-1(20),2(23),3,15(22),16,18(21)-hexaene-4-carbonitrile] | < 10
4 | O=C1NCC(F)(F)COc2ccc3[nH]nc(c3c2)-c2cccc(c2)CO1 [Example 152, 12,12-difluoro-8,14-dioxa-10,19,20-triazatetracyclo[13.5.2.1^2,6.0^18,21]tricosa-1(20),2(23),3,5,15(22),16,18(21)-heptaen-9-one] | < 10
5 | C[C@@H]1CCNC(=O)OCc2cccc(c2)-c2n[nH]c3c(F)cc(cc23)O1 [Example 153, (13R)-17-fluoro-13-methyl-8,14-dioxa-10,19,20-triazatetracyclo[13.5.2. 1^2,6.0^18,21]tricosa-1(20),2(23),3,5,15(22),16,18(21)-heptaen-9-one] | < 10
6 | C[C@@H]1CCNC(=O)O[C@@H](C)c2cncc(n2)-c2n[nH]c3ccc(cc23)O1 [Example 154, (7S,13R)-7,13-dimethyl-8,14-dioxa-4,10,19,20,23-pentaazatetracyclo[13.5.2.1^2,6.0^18,21]tricosa-1(20),2(23),3,5,15(22),16,18(21)-heptaen-9-one] | 10 to 100
7 | C[C@@H]1CCNC(=O)O[C@H](C)c2cncc(n2)-c2n[nH]c3ccc(cc23)O1 [Example 155, (7R,13R)-7,13-dimethyl-8,14-dioxa-4,10,19,20,23-pentaazatetracyclo[13.5. 2.1^2,6.0^18,21]tricosa-1(20),2(23),3,5,15(22),16,18(21)-heptaen-9-one] | < 10
8 | C[C@H]1CCNC(=O)OCc2cncc(n2)-c2n[nH]c3ccc(cc23)O1 [Example 156, (13S)-13-methyl-8,14-dioxa-4,10,19,20,23-pentaazatetracyclo[13.5.2. 1^2,6.0^18,21]tricosa-1(20),2(23),3,5,15(22),16,18(21)-heptaen-9-one] | < 10
9 | C[C@@H]1CCNC(=O)OCc2cccc(c2)-c2n[nH]c3ccc(nc23)O1 [Example 157, (13R)-13-methyl-8,14-dioxa-10,19,20,22-tetraazatetracyclo[13.5.2. 1^2,6.0^18,21]tricosa-1(20),2(23),3,5,15,17,21-heptaen-9-one] | < 10
10 | C[C@@H]1CCNC(=O)OCc2nc(cn2C)-c2n[nH]c3ccc(cc23)O1 [Example 158, (12R)-4,12-dimethyl-7,13-dioxa-4,9,18,19,22-pentaazatetracyclo[12.5.2. 1^2,5.0^17,20]docosa-1(19),2,5(22),14(21),15,17(20)-hexaen-8-one] | 10 to 100
11 | C[C@@H]1CCNC(=O)OCCn2ncc(n2)-c2n[nH]c3ccc(cc23)O1 [Example 159, (13R)-13-methyl-8,14-dioxa-4,5,10,19,20,23-hexaazatetracyclo[13.5.2.1^2,5.0^18,21]tricosa-1(20),2(23),3,15,17,21-hexaen-9-one] | < 10
12 | C[C@@H]1CCNC(=O)OCCC2=NC=C(S2)c2n[nH]c3ccc(cc23)O1 [Example 160, (13R)-13-methyl-8,14-dioxa-23-thia-4,10,19,20-tetraazatetracyclo[13.5.2.1^2,5.0^18,21]tricosa-1(20),2,4,15,17,21-hexaen-9-one] | < 10
13 | C[C@@H]1CCNC(=O)OCCc2nc(cn2C)-c2n[nH]c3ccc(cc23)O1 [Example 161, (13R)-4,13-dimethyl-8,14-dioxa-4,10,19,20,23-pentaazatetracyclo[13.5.2.1^2,5.0^18,21]tricosa-1(20),2,5(23),15(22),16,18(21)-hexaen-9-one] | 10 to 100
14 | C[C@@H]1CCNC(=O)OCc2cccc(c2)-c2n[nH]c3cnc(cc23)O1 [Example 162, (13R)-13-methyl-8,14-dioxa-10,16,19,20-tetraazatetracyclo[13.5.2.1^2,6.0^18,21]tricosa-1(20),2(23),3,5,15(22),16,18(21)-heptaen-9-one] | < 10
15 | CN1CCCNC(=O)OCc2cccc(c2)-c2n[nH]c3ccc1cc23 [Example 163, 14-methyl-8-oxa-10,14,19,20-tetraazatetracyclo[13.5.2.1^2,6.0^18,21]tricosa-1(20),2(23),3,5,15,17,21-heptaen-9-one] | < 10
16 | C[C@@H]1CCNC(=O)OCc2cncc(c2)-c2n[nH]c3ccc(nc23)O1 [Example 164, (13R)-13-methyl-8,14-dioxa-4,10,19,20,22-pentaazatetracyclo[13.5.2. 1^2,6.0^18,21]tricosa-1(20),2(23),3,5,15,17,21-heptaen-9-one] | < 10
17 | C[C@@H]1CCNC(=O)OCc2cccc(c2)-c2n[nH]c3ncc(cc23)O1 [Example 165, (13R)-13-methyl-8,14-dioxa-10,17,19,20-tetraazatetracyclo[13.5.2.1^2,6.0^18,21]tricosa-1(20),2(23),3,5,15(22),16,18(21)-heptaen-9-one] | < 10
18 | O=C1NCCCOc2ccc3[nH]nc(c3c2)-c2cnn(n2)CCO1 [Example 166, 8,14-dioxa-4,5,10,19,20,23-hexaazatetracyclo[13.5.2.1^2,5.0^18,21]tricosa-1(20),2(23),3,15(22),16,18(21)-hexaen-9-one] | < 10
19 | O=C1NCC(F)(F)COc2ccc3[nH]nc(c3c2)-c2cnn(n2)CCO1 [Example 167, 12,12-difluoro-8,14-dioxa-4,5,10,19,20,23-hexaazatetracyclo[13.5.2.1^2,5.0^18,21]tricosa-1(20),2(23),3,15(22),16,18(21)-hexaen-9-one] | < 10
20 | O=C1NC[C@@H](F)COc2ccc3[nH]nc(c3c2)-c2cccc(c2)CO1 [Example 168, (12R)-12-fluoro-8,14-dioxa-10,19,20-triazatetracyclo[13.5.2.1^2,6.0^8211]tricosa-1(20),2(23),3,5,15(22),16,18(21)-heptaen-9-one] | < 10
21 | O=C1NC[C@H](F)COc2ccc3[nH]nc(c3c2)-c2cccc(c2)CO1 [Example 169, (12S)-12-fluoro-8,14-dioxa-10,19,20-triazatetracyclo[13.5.2.1^2,6.0^18,21]tricosa-1(20),2(23),3,5,15(22),16,18(21)-heptaen-9-one] | < 10
22 | O=C1NCC(F)(F)COc2ccc3[nH]nc(c3c2)-c2cncc(n2)CO1 [Example 170, 12,12-difluoro-8,14-dioxa-4,10,19,20,23-pentaazatetracyclo[13.5.2.1^2,6.0^18,21]tricosa-1(20),2(23),3,5,15(22),16,18(21)-heptaen-9-one] | < 10
23 | O=C1NC[C@H](F)COc2ccc3[nH]nc(c3c2)-c2cncc(n2)CO1 [Example 171, (12S)-12-fluoro-8,14-dioxa-4,10,19,20,23-pentaazatetracyclo[13.5.2.1^2,6.0^18,21]tricosa-1(20),2(23),3,5,15,17,21-heptaen-9-one] | < 10
